# Data as given in the NIST ThermoML archive (doi:10.1021/je900691n).
# ± gives the expanded uncertainty stated by the source.
# Experiment: xn = mol fraction of the nth substance listed
# Details: Liquid, Pycnometric method
structure (smiles),measurement,setting,value
COC(=O)OC [dimethyl carbonate] + O=C=O,mass density,"323.15 K, 9620 kPa, x1 = 0.0242",495 ± 4 kg/m3
same,mass density,"323.15 K, 9710 kPa, x1 = 0.0242",509 ± 4 kg/m3
same,mass density,"323.15 K, 9740 kPa, x1 = 0.118",852 ± 4 kg/m3
same,mass density,"323.15 K, 9750 kPa, x1 = 0.0481",666 ± 4 kg/m3
same,mass density,"323.15 K, 9760 kPa, x1 = 0.086",792 ± 4 kg/m3
same,mass density,"323.15 K, 9760 kPa, x1 = 0.1484",883 ± 4 kg/m3
same,mass density,"323.15 K, 9800 kPa, x1 = 0.0242",523 ± 4 kg/m3
same,mass density,"323.15 K, 9900 kPa, x1 = 0.0242",536 ± 4 kg/m3
same,mass density,"323.15 K, 9930 kPa, x1 = 0.0242",541 ± 4 kg/m3
same,mass density,"323.15 K, 10010 kPa, x1 = 0.0481",683 ± 4 kg/m3
same,mass density,"323.15 K, 10220 kPa, x1 = 0.118",859 ± 4 kg/m3
same,mass density,"323.15 K, 10280 kPa, x1 = 0.086",803 ± 4 kg/m3
same,mass density,"323.15 K, 10280 kPa, x1 = 0.1484",888 ± 4 kg/m3
same,mass density,"323.15 K, 10350 kPa, x1 = 0.0481",700 ± 4 kg/m3
same,mass density,"323.15 K, 10740 kPa, x1 = 0.086",813 ± 4 kg/m3
same,mass density,"323.15 K, 10740 kPa, x1 = 0.118",866 ± 4 kg/m3
same,mass density,"323.15 K, 10740 kPa, x1 = 0.1484",893 ± 4 kg/m3
same,mass density,"323.15 K, 10780 kPa, x1 = 0.0481",719 ± 4 kg/m3
same,mass density,"323.15 K, 11230 kPa, x1 = 0.086",822 ± 4 kg/m3
same,mass density,"323.15 K, 11230 kPa, x1 = 0.118",872 ± 4 kg/m3
same,mass density,"323.15 K, 11230 kPa, x1 = 0.1484",897 ± 4 kg/m3
same,mass density,"323.15 K, 11360 kPa, x1 = 0.0481",739 ± 4 kg/m3
same,mass density,"323.15 K, 11670 kPa, x1 = 0.086",829 ± 4 kg/m3
same,mass density,"323.15 K, 11750 kPa, x1 = 0.118",878 ± 4 kg/m3
same,mass density,"323.15 K, 11760 kPa, x1 = 0.1484",901 ± 4 kg/m3
same,mass density,"323.15 K, 11870 kPa, x1 = 0.0481",754 ± 4 kg/m3
same,mass density,"323.15 K, 12240 kPa, x1 = 0.1484",905 ± 4 kg/m3
same,mass density,"323.15 K, 12270 kPa, x1 = 0.118",883 ± 4 kg/m3
same,mass density,"323.15 K, 12310 kPa, x1 = 0.086",839 ± 4 kg/m3
same,mass density,"323.15 K, 12390 kPa, x1 = 0.0481",768 ± 4 kg/m3
same,mass density,"323.15 K, 12740 kPa, x1 = 0.086",844 ± 4 kg/m3
same,mass density,"323.15 K, 12750 kPa, x1 = 0.118",888 ± 4 kg/m3
same,mass density,"323.15 K, 12770 kPa, x1 = 0.1484",910 ± 4 kg/m3
same,mass density,"323.15 K, 12920 kPa, x1 = 0.0481",780 ± 4 kg/m3
same,mass density,"323.15 K, 13190 kPa, x1 = 0.086",851 ± 4 kg/m3
same,mass density,"323.15 K, 13260 kPa, x1 = 0.1484",913 ± 4 kg/m3
same,mass density,"323.15 K, 13310 kPa, x1 = 0.118",894 ± 4 kg/m3
same,mass density,"323.15 K, 13550 kPa, x1 = 0.0481",792 ± 4 kg/m3
same,mass density,"323.15 K, 13740 kPa, x1 = 0.086",857 ± 4 kg/m3
same,mass density,"323.15 K, 13760 kPa, x1 = 0.1484",918 ± 4 kg/m3
same,mass density,"323.15 K, 13830 kPa, x1 = 0.118",898 ± 4 kg/m3
same,mass density,"323.15 K, 14230 kPa, x1 = 0.086",863 ± 4 kg/m3
same,mass density,"323.15 K, 14270 kPa, x1 = 0.118",902 ± 4 kg/m3
same,mass density,"323.15 K, 14330 kPa, x1 = 0.1484",922 ± 4 kg/m3
same,mass density,"323.15 K, 14730 kPa, x1 = 0.086",868 ± 4 kg/m3
same,mass density,"323.15 K, 14750 kPa, x1 = 0.118",907 ± 4 kg/m3
same,mass density,"323.15 K, 14820 kPa, x1 = 0.1484",925 ± 4 kg/m3
same,mass density,"323.15 K, 15220 kPa, x1 = 0.086",873 ± 4 kg/m3
same,mass density,"323.15 K, 15250 kPa, x1 = 0.118",911 ± 4 kg/m3
same,mass density,"323.15 K, 15510 kPa, x1 = 0.1484",930 ± 4 kg/m3
same,mass density,"323.15 K, 15660 kPa, x1 = 0.086",878 ± 4 kg/m3
same,mass density,"323.15 K, 15740 kPa, x1 = 0.118",914 ± 4 kg/m3
same,mass density,"323.15 K, 16130 kPa, x1 = 0.086",883 ± 4 kg/m3
same,mass density,"323.15 K, 16420 kPa, x1 = 0.1484",936 ± 4 kg/m3
same,mass density,"323.15 K, 16430 kPa, x1 = 0.118",920 ± 4 kg/m3
same,mass density,"327.95 K, 8540 kPa, x1 = 0.1484",839 ± 4 kg/m3
same,mass density,"327.95 K, 8840 kPa, x1 = 0.1484",844 ± 4 kg/m3
same,mass density,"327.95 K, 8920 kPa, x1 = 0.118",801 ± 4 kg/m3
same,mass density,"327.95 K, 9150 kPa, x1 = 0.0242",333 ± 4 kg/m3
same,mass density,"327.95 K, 9160 kPa, x1 = 0.118",806 ± 4 kg/m3
same,mass density,"327.95 K, 9180 kPa, x1 = 0.0242",337 ± 4 kg/m3
same,mass density,"327.95 K, 9250 kPa, x1 = 0.0242",344 ± 4 kg/m3
same,mass density,"327.95 K, 9290 kPa, x1 = 0.1484",850 ± 4 kg/m3
same,mass density,"327.95 K, 9320 kPa, x1 = 0.0242",352 ± 4 kg/m3
same,mass density,"327.95 K, 9320 kPa, x1 = 0.086",724 ± 4 kg/m3
same,mass density,"327.95 K, 9400 kPa, x1 = 0.0242",359 ± 4 kg/m3
same,mass density,"327.95 K, 9470 kPa, x1 = 0.0242",369 ± 4 kg/m3
same,mass density,"327.95 K, 9470 kPa, x1 = 0.118",812 ± 4 kg/m3
same,mass density,"327.95 K, 9540 kPa, x1 = 0.0242",378 ± 4 kg/m3
same,mass density,"327.95 K, 9620 kPa, x1 = 0.0242",387 ± 4 kg/m3
same,mass density,"327.95 K, 9690 kPa, x1 = 0.0242",397 ± 4 kg/m3
same,mass density,"327.95 K, 9720 kPa, x1 = 0.086",740 ± 4 kg/m3
